Results on five compounds are retold here after patent US11446309B2, “Combination therapy for cancer using bromodomain and extra-terminal (BET) protein inhibitors” (Dana-Farber Cancer Institute, Inc., priority 2013, dated 2022).

The experiment concerns H2122 human lung cancer line, m855 mouse GEM line, diffuse large B-cell lymphoma and Burkitt's lymphoma cell lines. The experiment can be described thus: Combination with JQ1, cell viability isobolograms (cell line not stated for the result). The experiment is classed as cell-based. To be noted: for Effect on JQ1 activity at doses where the agent alone has no effect: in combination with JQ1, doses where they alone have no effect. The protocol:
Compounds were profiled against H2122 human lung cancer line and m855 mouse GEM line containing p53/kRas mutations. Compounds were also profiled against diffuse large B-cell lymphoma cell lines OCI-Ly1, OCI-Ly3, OCI-Ly4, OCI-Ly7, S-DHL4, SU-DHL6, SU-DHL7, HBL1, K422, U2932 and Toledo, and against Burkitt's lymphoma cell lines Raji and Ca46.
Using a Biotek EL406, 50 uL of cell media containing 20-60,000 cells/ml was distributed into white 384-well Nunc plates (Thermo). Suspension cells then received compound immediately while adherent cells lines were given one hour to reattach to the surface of the plate prior to compound addition. The compounds to be tested were dissolved in DMSO and arrayed on 384 well compound storage plates (Greiner). Each compound plate received one compound in 5 point dose response approximately centered on the IC50 of the given compound for a given cell line.
After addition of compound, cell plates were incubated for 72 hr in a […] incubator. Cell viability was evaluated using ATPlite (Perkin Elmer) following manufacturer protocols. Data was analyzed in CalcuSyn utilizing the median effect principle of presented by Chou-Talalay and visualized using GraphPad Prism Software. Key parameters assessed were combination index and dose reduction index.
Points below the 1 to 1 line connecting the X and Y axes are ‘synergistic’, points near the line are ‘additive’, and points above it are antagonistic.

With `NC1(c2ccc(-c3nc4ccn5c(=O)[nH]nc5c4cc3-c3ccccc3)cc2)CCC1` [MK2206], the “Type of response when administered in combination with JQ1 (isobologram)” value (“Type of response … (isobologram)” for short) is given as “synergistic response”. For `Cn1c(=O)n(-c2ccc(C(C)(C)C#N)cc2)c2c3cc(-c4cnc5ccccc5c4)ccc3ncc21` [BEZ235], the “Type of response … (isobologram)” value is “additive effects” and the “Effect on JQ1 activity at doses where the agent alone has no effect” value is reported as “increased the effect of JQ1”. As for `COc1cc([C@@H]2c3cc4c(cc3[C@@H](O[C@@H]3O[C@@H]5CO[C@@H](C)O[C@H]5[C@H](O)[C@H]3O)[C@H]3COC(=O)[C@H]23)OCO4)cc(OC)c1O` [etoposide], the “Type of response … (isobologram)” value is reported as “synergistic response”. On the same count and under the same terms, to `C[C@@H](Oc1cc(-c2cnn(C3CCNCC3)c2)cnc1N)c1c(Cl)ccc(F)c1Cl` [crizotinib] belongs “synergistic response”. Take `CO[C@H]1C[C@@H]2CC[C@@H](C)[C@@](O)(O2)C(=O)C(=O)N2CCCC[C@H]2C(=O)O[C@H]([C@H](C)C[C@@H]2CC[C@@H](OC(=O)C(C)(CO)CO)[C@H](OC)C2)CC(=O)[C@H](C)/C=C(\C)[C@@H](O)[C@@H](OC)C(=O)[C@H](C)C[C@H](C)/C=C/C=C/C=C/1C` [temsirolimus]: the “Type of response … (isobologram)” value is “additive effects” and the “Effect on JQ1 activity at doses where the agent alone has no effect” value is recorded as “increased the effect of JQ1”.
